In the case of `OC(c1ccc(Cl)cc1)C1CCNCC1` (stereo not drawn), the melting point – broadly, the temperature, or range, at which the solid turns liquid – was in the range of 139 to 141 °C.
`Nc1c(Cl)ncnc1NC1CC1` came in with a melting point of 139 to 141 °C.
The result for `CC(C)c1n[nH]c(C(=O)O)c1Br` reads 195 to 197 °C; that for `Clc1nc(-c2ccccc2)cs1`, 55 to 57 °C; that for `Cc1nc(COc2ccccc2C(=O)O)no1`, 89 to 91 °C.
`Nc1nc(Cl)ccc1F`: the melting point lay in the range of 84 to 86 °C.
In turn, `CC1(C)NC(=O)C1(C)C` yielded a melting point of 95 to 97 °C.
`O=C(O)c1sccc1S(=O)(=O)Nc1cccc2cn[nH]c12` came in with a melting point of 236 to 238 °C.

The values above are taken from a melting point compilation (Tetko et al.).
